This note sets out measurements from ChEMBL document CHEMBL1157890, “Bioactivity-guided isolation of mosquitocidal constituents from the rhizomes of Plumbago capensis Thunb” (2010).

≈ marks a conversion by molar mass, not a printed value. Calls of active or inactive are those of the source. The rule behind the calls is not given here.

Assay [1] has as its system Aedes aegypti. As to the kind of experiment: Larvicidal activity against Aedes aegypti fourth instar larvae after 24 hrs. It counts as functional. The settings on record: for LC50: Aedes aegypti, 24 h.
Assay [2] relates to Aedes aegypti. As to the kind of experiment: Larvicidal activity against Aedes aegypti fourth instar larvae at 20 ug/ml after 24 hrs. Format: functional.
Assay [3] relates to Aedes aegypti. As to the kind of experiment: Larvicidal activity against Aedes aegypti fourth instar larvae at 60 ug/ml after 24 hrs. It counts as functional, organism-based.
Assay [4] has as its system Aedes aegypti. As to the kind of experiment: Larvicidal activity against Aedes aegypti fourth instar larvae at 6.5 ug/ml after 24 hrs. It counts as functional.

For orientation: LC50 means the concentration lethal to half of the exposed cells or organisms. A lower LC50 goes with greater toxicity. In assay [1], `COC1=C(C)C(=O)c2cccc(O)c2C1=O` showed an LC90 of 55.72 µg/mL (≈ 255 µM) and an LC50 of 31.5 µg/mL (≈ 144 µM).
In assay [1], `CC1=CC(=O)c2c(ccc(O)c2O)C1=O` displayed an LC90 of 19.28 µg/mL (≈ 94.4 µM) and an LC50 of 13.6 µg/mL (≈ 66.8 µM). This compound also showed an Activity in assay [2] of 100%.
Take `CC1=CC(=O)c2c(ccc(-c3cc(O)c4c(c3C)C(=O)CCC4=O)c2O)C1=O`: in assay [1], the LC90 amounted to 42.72 µg/mL (≈ 114 µM) and the LC50 amounted to 31.2 µg/mL (≈ 82.9 µM).
Consider `CC1=CC(=O)c2c(ccc(C3=C(C)C(=O)c4cccc(O)c4C3=O)c2O)C1=O`, for which the outcome in assay [3] was inactive.
In the case of `C[C@H]1C[C@H](O)c2cccc(O)c2C1=O`, the result in assay [3] was inactive.
Take `C[C@H]1CC(=O)c2c(O)cccc2[C@H]1O` [ISOSHINANOLONE]: in assay [1], the LC90 worked out at 4.1 µg/mL (≈ 21.3 µM) and the LC50 worked out at 1.26 µg/mL (≈ 6.56 µM).
In assay [1], `CC1=CC(=O)c2c(O)ccc(-c3ccc(O)c4c3C(=O)C(C)=CC4=O)c2C1=O` [MARITINONE] returned an LC90 of 53.87 µg/mL (≈ 144 µM) and an LC50 of 40.7 µg/mL (≈ 109 µM).
In the case of `CC1=CC(=O)c2c(O)cccc2C1=O` [PLUMBAGIN], in assay [1], the LC90 was found to be 6.56 µg/mL (≈ 34.9 µM) and the LC50 is 5.43 µg/mL (≈ 28.9 µM). The compound also gave an Activity in assay [4] of 100%.
In assay [1], `C=C(C)[C@H]1Cc2c(ccc3c2O[C@@H]2COc4cc(OC)c(OC)cc4[C@@H]2C3=O)O1` [ROTENONE] registered an LC90 of 25 µg/mL (≈ 63.4 µM) and an LC50 of 6.2 µg/mL (≈ 15.7 µM).
